Test: Phase I safety: adverse events, adverse drug reactions, DLTs in patients with advanced solid tumors
Assay type: in vivo, human
Description: This was a phase I, open-label, non-randomized, dose-escalating first-in-human study to evaluate the safety, pharmacokinetics, antitumor activity, pharmacodynamics, and pharmacogenomics of TAS-117 in patients with advanced solid tumors. The study had three phases: a dose escalation phase (DEP), a regimen modification phase (RMP), and a safety assessment phase (SAP). The treatment cycle on each regimen lasted 21 days. The DEP used an accelerated titration and 3 + 3 design. TAS-117 was administered orally once daily (QD) on an empty stomach (1 h before or 2 h after a meal). Dosing was determined based on a 4-week repeated oral-dose toxicology study in monkeys (data on file, Taiho Pharmaceutical Co., Ltd.); the highest non-severely toxic dose was 1.2 mg/kg/day, which was converted to 3.84 mg/body/day, or 2.4 mg/m^2. Therefore, the starting dose was determined to be ≤ 2.4 mg/m^2. At dose level 1, TAS-117 was administered at 2 mg QD (Day − 2), and the dose was increased to 4 mg QD after 2 days (Day 1). The RMP was conducted according to a 3 + 3 design. During this phase, the dose regimen was changed from QD administration to intermittent dosing of daily TAS-117 with 4 days on/3 days off. TAS-117 was administered on an empty stomach. Dose-limiting toxicities (DLTs) were evaluated in Cycle 1 of the DEP and RMP. […] The RD and regimen for the SAP were determined based on the safety, pharmacokinetics, pharmacodynamics, and antitumor activity profile determined in the DEP and RMP. During the SAP, the safety and preliminary efficacy profiles of TAS-117 were assessed at the RD and recommended regimen. Three cohorts were included in this assessment. Cohort 1 included patients with endometrial cancer with a PIK3CA mutation; cohort 2 included patients with endometrial cancer with an AKT1 mutation, AKT1 amplification, or AKT2 amplification; and cohort 3 included patients with ovarian clear cell carcinoma.
The primary endpoints were the proportion of patients who experienced DLTs in Cycle 1 of the DEP and RMP and the incidence of adverse events (AEs) and adverse drug reactions (ADRs) in the SAP. AEs and ADRs were coded using the Medical Dictionary for Regulatory Activities (MedDRA; version 24.1) and graded according to the National Cancer Institute Common Terminology Criteria for Adverse Events (CTCAE; version 4.03). Secondary endpoints were pharmacokinetic findings, changes in the ratio of phosphorylated PRAS40 (pPRAS40)/total PRAS40 from baseline, efficacy, and pharmacogenomics findings.

## C[C@]1(O)C[C@@](N)(c2ccc(-c3nc4n(c3-c3ccccc3)COc3ccncc3-4)cc2)C1 [TAS-117]
RMP dose level 5 (32 mg), Cycle 1 and Cycle 2
  Grade 3 maculopapular rash with treatment interruption and/or dose reduction: two of three patients
RMP dose level 5 (32 mg), intermittent administration
  DLT (grade 3 maculopapular rash) during Cycle 1: one of the three patients
RMP n = 10, All grade
  Adverse drug reactions: ALT increased: 0 (0.0) n (%)
  Adverse drug reactions: AST increased: 1 (10.0) n (%)
  Adverse drug reactions: Any events: 10 (100.0) n (%)
  Adverse drug reactions: Blood AP increased: 1 (10.0) n (%)
  Adverse drug reactions: Decreased appetite: 5 (50.0) n (%)
  Adverse drug reactions: Diarrhea: 2 (20.0) n (%)
  Adverse drug reactions: Dry skin: 1 (10.0) n (%)
  Adverse drug reactions: GGT increased: 2 (20.0) n (%)
  Adverse drug reactions: GI disorders: 8 (80.0) n (%)
  Adverse drug reactions: General disorders and administration site conditions: 5 (50.0) n (%)
  Adverse drug reactions: Hyperglycemia: 3 (30.0) n (%)
  Adverse drug reactions: Investigations: 6 (60.0) n (%)
  Adverse drug reactions: Metabolism and nutrition disorders: 5 (50.0) n (%)
  Adverse drug reactions: Nausea: 3 (30.0) n (%)
  Adverse drug reactions: Neutrophil count decreased: 3 (30.0) n (%)
  Adverse drug reactions: Pruritus: 4 (40.0) n (%)
  Adverse drug reactions: Pyrexia: 4 (40.0) n (%)
  Adverse drug reactions: Rash maculo-papular: 9 (90.0) n (%)
  Adverse drug reactions: Skin and SC tissue disorders: 9 (90.0) n (%)
  Adverse drug reactions: Stomatitis: 8 (80.0) n (%)
  Adverse drug reactions: Vomiting: 1 (10.0) n (%)
  Adverse drug reactions: WBC count decreased: 3 (30.0) n (%)
  Adverse events: ALT increased: 1 (10.0) n (%)
  Adverse events: AST increased: 2 (20.0) n (%)
  Adverse events: Any events: 10 (100.0) n (%)
  Adverse events: Blood AP increased: 1 (10.0) n (%)
  Adverse events: Decreased appetite: 7 (70.0) n (%)
  Adverse events: Diarrhea: 3 (30.0) n (%)
  Adverse events: Dry skin: 1 (10.0) n (%)
  Adverse events: GGT increased: 2 (20.0) n (%)
  Adverse events: GI disorders: 9 (90.0) n (%)
  Adverse events: General disorders and administration site conditions: 9 (90.0) n (%)
  Adverse events: Hyperglycemia: 3 (30.0) n (%)
  Adverse events: Investigations: 7 (70.0) n (%)
  Adverse events: Metabolism and nutrition disorders: 7 (70.0) n (%)
  Adverse events: Nausea: 4 (40.0) n (%)
  Adverse events: Neutrophil count decreased: 3 (30.0) n (%)
  Adverse events: Pruritus: 4 (40.0) n (%)
  Adverse events: Pyrexia: 6 (60.0) n (%)
  Adverse events: Rash maculo-papular: 9 (90.0) n (%)
  Adverse events: Skin and SC tissue disorders: 9 (90.0) n (%)
  Adverse events: Stomatitis: 8 (80.0) n (%)
  Adverse events: Vomiting: 2 (20.0) n (%)
  Adverse events: WBC count decreased: 3 (30.0) n (%)
RMP n = 10, ≥ Grade 3
  Adverse drug reactions: ALT increased: 0 (0.0) n (%)
  Adverse drug reactions: AST increased: 0 (0.0) n (%)
  Adverse drug reactions: Any events: 6 (60.0) n (%)
  Adverse drug reactions: Blood AP increased: 0 (0.0) n (%)
  Adverse drug reactions: Decreased appetite: 0 (0.0) n (%)
  Adverse drug reactions: Diarrhea: 0 (0.0) n (%)
  Adverse drug reactions: Dry skin: 0 (0.0) n (%)
  Adverse drug reactions: GGT increased: 1 (10.0) n (%)
  Adverse drug reactions: GI disorders: 0 (0.0) n (%)
  Adverse drug reactions: General disorders and administration site conditions: 0 (0.0) n (%)
  Adverse drug reactions: Hyperglycemia: 2 (20.0) n (%)
  Adverse drug reactions: Investigations: 3 (30.0) n (%)
  Adverse drug reactions: Metabolism and nutrition disorders: 2 (20.0) n (%)
  Adverse drug reactions: Nausea: 0 (0.0) n (%)
  Adverse drug reactions: Neutrophil count decreased: 0 (0.0) n (%)
  Adverse drug reactions: Pruritus: 0 (0.0) n (%)
  Adverse drug reactions: Pyrexia: 0 (0.0) n (%)
  Adverse drug reactions: Rash maculo-papular: 3 (30.0) n (%)
  Adverse drug reactions: Skin and SC tissue disorders: 3 (30.0) n (%)
  Adverse drug reactions: Stomatitis: 0 (0.0) n (%)
  Adverse drug reactions: Vomiting: 0 (0.0) n (%)
  Adverse drug reactions: WBC count decreased: 2 (20.0) n (%)
  Adverse events: ALT increased: 0 (0.0) n (%)
  Adverse events: AST increased: 0 (0.0) n (%)
  Adverse events: Any events: 7 (70.0) n (%)
  Adverse events: Blood AP increased: 0 (0.0) n (%)
  Adverse events: Decreased appetite: 0 (0.0) n (%)
  Adverse events: Diarrhea: 1 (10.0) n (%)
  Adverse events: Dry skin: 0 (0.0) n (%)
  Adverse events: GGT increased: 1 (10.0) n (%)
  Adverse events: GI disorders: 2 (20.0) n (%)
  Adverse events: General disorders and administration site conditions: 0 (0.0) n (%)
  Adverse events: Hyperglycemia: 2 (20.0) n (%)
  Adverse events: Investigations: 3 (30.0) n (%)
  Adverse events: Metabolism and nutrition disorders: 2 (20.0) n (%)
  Adverse events: Nausea: 0 (0.0) n (%)
  Adverse events: Neutrophil count decreased: 0 (0.0) n (%)
  Adverse events: Pruritus: 0 (0.0) n (%)
  Adverse events: Pyrexia: 0 (0.0) n (%)
  Adverse events: Rash maculo-papular: 3 (30.0) n (%)
  Adverse events: Skin and SC tissue disorders: 3 (30.0) n (%)
  Adverse events: Stomatitis: 0 (0.0) n (%)
  Adverse events: Vomiting: 0 (0.0) n (%)
  Adverse events: WBC count decreased: 2 (20.0) n (%)
SAP n = 43, All grade
  Adverse drug reactions: ALT increased: 6 (14.0) n (%)

From PMC11129975, “A first-in-human phase I study of TAS-117, an allosteric AKT inhibitor, in patients with advanced solid tumors” (Cancer Chemotherapy and Pharmacology, 2024)
